The record followed here is publication PMC4003389, “Identification of pheromone components and their binding affinity to the odorant binding protein CcapOBP83a-2 of the Mediterranean fruit fly, Ceratitis capitata” (Insect Biochemistry and Molecular Biology, 2014).

The structures appear in SMILES notation. Where “and” joins values, the source holds several entries; their conditions need not be identical. Identical values can stand only once. Like-named read-outs stand apart in the source and are kept apart here.

One experiment concerns the target CcapOBP83a-2 (Ceratitis capitata, UniProt W8W3U3). Briefly: biochemical. Type of experiment: binding. The settings on record: for IC50: read-out: IC50 (concentration of ligand halving the initial fluorescence level); for Ki: read-out: Ki (dissociation constant). Here is the method:
The 1-NPN/protein mixture was excited at 337 nm and the emission was recorded between 380 and 450 nm on a Perkin Elmer LS 55 Fluorescence spectrometer (Cambridge–UK) at 25 °C in a right angle configuration with a 1 cm light path quartz cuvette. The excitation and emission slits were both 5 nm. Data were recorded and graphed using FL WinLab Software (Perkin–Elmer). […] Analyses were performed by nonlinear regression curve fitting using GraphPad Prism 5 (GraphPad Software, Inc, La Jolla, USA).

The subject of experiment [1] is antennae of male and female C. capitata. The experiment in a line: Coupled GC–EAG of male volatile extract on medfly antennae. Further details: species or system Ceratitis capitata. The note with it: for EAG response: number of females (F) that showed a positive EAG response: female antennae; for EAG response: number of females (F) that showed a positive EAG response / EAG response: number of males (M) that showed a positive EAG response: in a total of five replicates, GC–EAG; for EAG response: number of males (M) that showed a positive EAG response: male antennae; for electrophysiological (EAG) response, in words: GC–EAG of male volatile extract. Here is the method:
Electrical responses to chemical stimuli were recorded from the antennae of both sexes using 4 day-old virgin individuals. Electroantennogram (EAG) recordings were made with Ag–AgCl glass microelectrodes filled with Ringer solution (for 1 L H2O solution: 7.2 g NaCl, 0.37 g KCl, 0.17 g CaCl2, pH 7.3–7.4). The head of a fly (both male and female), anaesthetised by chilling, was excised from the body with a microscalpel and the tip of one of the two arista was cut off with micro-scissors. The indifferent electrode was inserted in the head (from the base to the top-frontal part) and the recording electrode was positioned over the cut arista. Signals were passed through a high impedance amplifier (UN-06, Hilversum, The Netherlands) and analysed using a customised software package (Syntech). […] The oven was maintained at 30 °C for 2 min and then programmed for increments at 5 °C min^−1 to 250 °C. The carrier gas was helium. Outputs from the EAG amplifier and the FID were monitored simultaneously and analysed using the Syntech software package. […] The stimulus (2 s duration) was delivered into a purified airstream (1 l/min) flowing continuously over the preparation using a stimulus controller (Syntech CS02). Samples (10 μl) of the standard solution of test compounds (1 mg/ml in redistilled hexane) were applied in the cartridge. The control stimulus was hexane (10 μl). Five replicates were performed for each sample using antennae from 5 different flies.

Setting [2] is: first fraction, ligand 50 μM, 1-NPN 3 μM.
Setting [3] is: second fraction, ligand 50 μM, 1-NPN 3 μM.

Chain of CcapOBP83a-2 (W8W3U3 entry or part of it): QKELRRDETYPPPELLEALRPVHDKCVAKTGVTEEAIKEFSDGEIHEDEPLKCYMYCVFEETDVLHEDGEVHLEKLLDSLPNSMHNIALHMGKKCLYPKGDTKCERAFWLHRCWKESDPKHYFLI

As for `C=CCc1ccc(OC)c(OC)c1` [Methyleugenol, reference compound], on CcapOBP83a-2 (setting [2]), the “Int (end point fluorescent level): fluorescence intensity after the maximum quantity of chemical was added” value (shortened to “Int (end point fluorescent level)”) was found to be 61.9. Further, at CcapOBP83a-2 (second fraction, 1-NPN 3 μM), the IC50 came to 43 µM and the Ki was found to be 4640 nM. Also, the “Int (end point fluorescent level)” value on CcapOBP83a-2 (setting [3]) is listed as 46.0.
Turning to `CC1CC(Cl)CCC1C(=O)OC(C)(C)C` (centres unmarked) [Trimedlure, t-Butyl-2-methyl-4-chlorocyclohexanecarboxylate, reference compound], at CcapOBP83a-2 (setting [2]), the “Int (end point fluorescent level)” value worked out at 66.0. At CcapOBP83a-2 (second fraction, 1-NPN 3 μM), the IC50 turned out to be 2.1 µM; the inhibition constant Ki was 300 nM and 322 nM. Further, at CcapOBP83a-2 (setting [3]), the “Int (end point fluorescent level)” value worked out at 9.8.
For `C=C/C(C)=C\CC=C(C)C` [(Z)-Ocimene], in experiment [1], the “EAG response: number of females (F) that showed a positive EAG response” value (shortened to “EAG response: number of females”) is recorded as “M4F4” and the “EAG response: number of males (M) that showed a positive EAG response” value (shortened to “EAG response: number of males”) was “M4F4”. Further, the Ki on CcapOBP83a-2 (first fraction, 1-NPN 3 μM) was 4520 nM. For the same compound, on CcapOBP83a-2 (setting [2]), the “Int (end point fluorescent level)” value turned out to be 49.9. At CcapOBP83a-2 (second fraction, 1-NPN 3 μM), the IC50 stood at 13.5 µM; the Ki is 1900 nM and 1890 nM. The “Int (end point fluorescent level)” value at CcapOBP83a-2 (setting [3]) was found to be 23.4.
For the compound `C[C@@H](O)[C@@H](C)O` [(RR)-2,3-Butanediol], in experiment [1], the “EAG response: number of females” value is 3 and the “EAG response: number of males” value is 2. In addition, on CcapOBP83a-2 (setting [2]), the “Int (end point fluorescent level)” value came to 62.9. Besides, the “Int (end point fluorescent level)” value on CcapOBP83a-2 (setting [3]) turned out to be 58.3.
On the same counts, the results for `c1ccc2[nH]ccc2c1` [Indole] are “M3F3”, “M3F3”, 66.2 and 60.1.
For `CCCCCCCC(=O)OCC` [Ethyl octanoate, reference compound], the “Int (end point fluorescent level)” value is given as 66.3 at CcapOBP83a-2 (setting [2]) and 26.1 on CcapOBP83a-2 (setting [3]). The IC50 on CcapOBP83a-2 (second fraction, 1-NPN 3 μM) amounted to 15 µM. The Ki on CcapOBP83a-2 (second fraction, 1-NPN 3 μM) was 2000 nM and 1960 nM.
In the case of `CC/C=C/CC(=O)OCC` [Ethyl (E)-3-hexenoate], in experiment [1], the “EAG response: number of females” value was “M4F4” and the “EAG response: number of males” value was “M4F4”. Further, the “Int (end point fluorescent level)” value at CcapOBP83a-2 (setting [2]) is 68.5. Also, on CcapOBP83a-2 (setting [3]), the “Int (end point fluorescent level)” value was found to be 51.5.
Turning to `C=CC(=C)CC/C=C(\C)CCC=C(C)C` [(E)-β-Farnesene, reference compound], the “binding activity, in words” value at CcapOBP83a-2 (first fraction) is reported as “limited degree of binding”. Besides, the Ki at CcapOBP83a-2 (first fraction, 1-NPN 3 μM) was 1400 nM; on CcapOBP83a-2 (second fraction, 1-NPN 3 μM) it was 200 nM. Moreover, the results for the “Int (end point fluorescent level)” value at CcapOBP83a-2 (setting [2]) and at CcapOBP83a-2 (setting [3]) were 75.1 and 33.6, respectively.
Turning to `CCC(C)C(C)=O` (racemic) [(RS)-3-Methylpentan-2-one], in experiment [1], the “electrophysiological (EAG) response, in words” value (“electrophysiological” for short) is recorded as “response only on the female antennae”; the “EAG response: number of females” value is on record as 3; the “EAG response: number of males” value came to 0. Besides, the “Int (end point fluorescent level)” value at CcapOBP83a-2 (setting [2]) turned out to be 65.3. For the same compound, the “Int (end point fluorescent level)” value on CcapOBP83a-2 (setting [3]) worked out at 58.3.
`C=CC(C)(O)CCC=C(C)C` (racemic) [(RS)-Linalool]: in experiment [1], the “EAG response: number of females” value amounted to 3 and the “EAG response: number of males” value was determined as 4. The “Int (end point fluorescent level)” value at CcapOBP83a-2 (setting [2]) is recorded as 66.6. On CcapOBP83a-2 (second fraction, 1-NPN 3 μM), the IC50 came out at 41 µM and the inhibitory constant (Ki) was 6100 nM. For the same compound, on CcapOBP83a-2 (setting [3]), the “Int (end point fluorescent level)” value was found to be 44.7.
Turning to `CC(=O)OC/C=C(\C)CCC=C(C)C` [Geranyl acetate], in experiment [1], the “EAG response: number of females” value worked out at 4 and the “EAG response: number of males” value is 5. Besides, the “Int (end point fluorescent level)” value at CcapOBP83a-2 (setting [2]) is listed as 70.4. Also, at CcapOBP83a-2 (second fraction, 1-NPN 3 μM), the IC50 was 6.5 µM; the Ki was 900 nM and 901 nM. Also, the “Int (end point fluorescent level)” value on CcapOBP83a-2 (setting [3]) was 17.4.
With `CC1CCOC1=O` (centres unmarked) [Dihydro-3-methyl-2-(3H)-furanone], the “EAG response: number of females” value in experiment [1] is given as 4. Moreover, in experiment [1], the “EAG response: number of males” value was 3. For the same compound, the “Int (end point fluorescent level)” value at CcapOBP83a-2 (setting [2]) came to 66.5; at CcapOBP83a-2 (setting [3]), 58.1.
For `CCCC/C=C/CC(=O)OCC` [Ethyl (E)-3-octenoate], in experiment [1], the “EAG response: number of females” value is recorded as “M4F4” and the “EAG response: number of males” value is “M4F4”. The “Int (end point fluorescent level)” value at CcapOBP83a-2 (setting [2]) is reported as 55.6. In addition, on CcapOBP83a-2 (second fraction, 1-NPN 3 μM), the IC50 amounted to 18 µM and the Ki was 2410 nM. The “Int (end point fluorescent level)” value at CcapOBP83a-2 (setting [3]) is 24.2.
On to `CC(C)CCO` [3-Methylbutan-1-ol], for which, in experiment [1], the “EAG response: number of females” value is “M4F4” and the “EAG response: number of males” value is recorded as “M4F4”. Moreover, the “Int (end point fluorescent level)” value at CcapOBP83a-2 was 63.4 and 55.6.
For the compound `C=C/C(C)=C/C/C=C(\C)CCC=C(C)C` [(E,E)-α-Farnesene], in experiment [1], the “electrophysiological” value was “small responses in both male and female flies”; the “EAG response: number of females” value came to 3; the “EAG response: number of males” value came out at 2. For the same compound, at CcapOBP83a-2 (first fraction, 1-NPN 3 μM), the Ki worked out at 6560 nM. Also, the “Int (end point fluorescent level)” value at CcapOBP83a-2 (setting [2]) was determined as 34.3. Moreover, on CcapOBP83a-2 (second fraction, 1-NPN 3 μM), the IC50 amounted to 1.2 µM; the inhibition constant (Ki) is 100 nM and 133 nM. On CcapOBP83a-2 (setting [3]), the “Int (end point fluorescent level)” value is 14.4.
As for `OC1COCC1O` (centres unmarked) [Tetrahydro-3,4-furandiol], in experiment [1], the “EAG response: number of females” value worked out at 4 and the “EAG response: number of males” value came to 2. For the same compound, the “Int (end point fluorescent level)” value at CcapOBP83a-2 (setting [2]) was found to be 66.2. For the same compound, the “Int (end point fluorescent level)” value on CcapOBP83a-2 (setting [3]) stood at 59.9.
For the compound `C=C/C(C)=C/CC=C(C)C` [(E)-Ocimene], in experiment [1], the “electrophysiological” value is given as “response only on the female antennae”; the “EAG response: number of females” value was found to be 4; the “EAG response: number of males” value is given as 0. Further, the “Int (end point fluorescent level)” value at CcapOBP83a-2 (setting [2]) is 66.3. Besides, on CcapOBP83a-2 (second fraction, 1-NPN 3 μM), the IC50 was determined as 50 µM; the Ki was 8200 nM and 8170 nM. Also, the “Int (end point fluorescent level)” value at CcapOBP83a-2 (setting [3]) was 50.7.
With `C=CC(=C)CCC=C(C)C` [Myrcene], in experiment [1], the “electrophysiological” value was “response only on the female antennae”; the “EAG response: number of females” value was found to be 4; the “EAG response: number of males” value is 0. For the same compound, the “Int (end point fluorescent level)” value on CcapOBP83a-2 (setting [2]) is reported as 77.5. On CcapOBP83a-2 (second fraction, 1-NPN 3 μM), the IC50 was determined as 10 µM; the Ki was 900 nM and 879 nM. For the same compound, on CcapOBP83a-2 (setting [3]), the “Int (end point fluorescent level)” value worked out at 39.6.
